How the values were obtained:
Experiment in all cases: relative viability (nuclei count vs DMSO), 5 days (fraction); higher = more cells survive
NCI-H1944 = test system: NCI-H1944
How it was run: (§1)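 Relative viability was taken as the ratio of nuclei in treated wells to nuclei in vehicle wells. Lung cancer cell lines in 1536-well plates received compounds by pin tool one day after seeding, either one drug alone or a fixed anchor-drug dose plus five library-drug doses (not always all listed) in √10 steps. Nuclei were counted on 4× images after 5 days of treatment, and values are medians of duplicate plates.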

EMC-BAC-2 = test system: EMC-BAC-2
How it was run: as §1

LK-2 = test system: LK-2
How it was run: as §1

LU99A = test system: LU99A
How it was run: as §1

LXF-289 = test system: LXF-289
How it was run: as §1

HARA = test system: HARA
How it was run: as §1

SW 1573 = test system: SW 1573
How it was run: as §1

PC-3 [JPC-3] = test system: PC-3 [JPC-3]
How it was run: as §1

SK-MES-1 = test system: SK-MES-1
How it was run: as §1

A-427 = test system: A-427
How it was run: as §1

NCI-H3122 = test system: NCI-H3122
How it was run: as §1

NCI-H2228 = test system: NCI-H2228
How it was run: as §1

NCI-H1792 = test system: NCI-H1792
How it was run: as §1

NCI-H2170 = test system: NCI-H2170
How it was run: as §1

HOP-62 = test system: HOP-62
How it was run: as §1

NCI-H1993 = test system: NCI-H1993
How it was run: as §1

COR-L23 = test system: COR-L23
How it was run: as §1

SK-LU-1 = test system: SK-LU-1
How it was run: as §1

NCI-H596 = test system: NCI-H596
How it was run: as §1

NCI-H1793 = test system: NCI-H1793
How it was run: as §1

NCI-H2009 = test system: NCI-H2009
How it was run: as §1

NCI-H727 = test system: NCI-H727
How it was run: as §1

ABC-1 = test system: ABC-1
How it was run: as §1

COc1cc(N2CCC(C(N)=O)CC2)ccc1Nc1nc(N)c(Cl)c(Nc2ccccc2S(=O)(=O)C(C)C)n1 [HG-5-88-01] + Cc1nc(NC(=O)N2CCC[C@H]2C(N)=O)sc1-c1ccnc(C(C)(C)C(F)(F)F)c1 [Alpelisib] (partner 2 µM)
relative viability (NCI-H1944; first compound 0.04 µM): 0.801
relative viability (NCI-H1944; first compound 0.1265 µM): 0.833
relative viability (NCI-H1944; first compound 0.4 µM): 1.01
relative viability (NCI-H1944; first compound 1.265 µM): 0.71
relative viability (NCI-H1944; first compound 4 µM): 0.844
relative viability (EMC-BAC-2; first compound 0.04 µM): 0.729
relative viability (EMC-BAC-2; first compound 0.1265 µM): 0.757
relative viability (EMC-BAC-2; first compound 0.4 µM): 0.723
relative viability (EMC-BAC-2; first compound 1.265 µM): 0.703
relative viability (EMC-BAC-2; first compound 4 µM): 0.628
relative viability (LK-2; first compound 0.04 µM): 1.16
relative viability (LK-2; first compound 0.1265 µM): 1.23
relative viability (LK-2; first compound 0.4 µM): 0.975
relative viability (LK-2; first compound 1.265 µM): 0.632
relative viability (LK-2; first compound 4 µM): 1.8
relative viability (LU99A; first compound 0.04 µM): 0.561
relative viability (LU99A; first compound 0.1265 µM): 0.514
relative viability (LU99A; first compound 0.4 µM): 0.513
relative viability (LU99A; first compound 1.265 µM): 0.552
relative viability (LU99A; first compound 4 µM): 0.422
relative viability (LXF-289; first compound 0.04 µM): 1.05
relative viability (LXF-289; first compound 0.1265 µM): 1.04
relative viability (LXF-289; first compound 0.4 µM): 1
relative viability (LXF-289; first compound 1.265 µM): 1.08
relative viability (LXF-289; first compound 4 µM): 0.968
relative viability (HARA; first compound 0.04 µM): 0.938
relative viability (HARA; first compound 0.1265 µM): 0.777
relative viability (HARA; first compound 0.4 µM): 0.742
relative viability (HARA; first compound 1.265 µM): 0.779
relative viability (HARA; first compound 4 µM): 0.799
relative viability (SW 1573; first compound 0.04 µM): 0.866
relative viability (SW 1573; first compound 0.1265 µM): 0.571
relative viability (SW 1573; first compound 0.4 µM): 0.866
relative viability (SW 1573; first compound 1.265 µM): 0.632
relative viability (SW 1573; first compound 4 µM): 0.605
relative viability (PC-3 [JPC-3]; first compound 0.04 µM): 0.965
relative viability (PC-3 [JPC-3]; first compound 0.1265 µM): 1.04
relative viability (PC-3 [JPC-3]; first compound 0.4 µM): 1
relative viability (PC-3 [JPC-3]; first compound 1.265 µM): 0.971
relative viability (PC-3 [JPC-3]; first compound 4 µM): 0.825
relative viability (SK-MES-1; first compound 0.04 µM): 0.925
relative viability (SK-MES-1; first compound 0.1265 µM): 0.582
relative viability (SK-MES-1; first compound 0.4 µM): 1.07
relative viability (SK-MES-1; first compound 1.265 µM): 0.941
relative viability (SK-MES-1; first compound 4 µM): 0.86
relative viability (A-427; first compound 0.04 µM): 1.07
relative viability (A-427; first compound 0.1265 µM): 1.12
relative viability (A-427; first compound 0.4 µM): 1.16
relative viability (A-427; first compound 1.265 µM): 1.12
relative viability (A-427; first compound 4 µM): 0.959
relative viability (NCI-H3122; first compound 0.04 µM): 0.624
relative viability (NCI-H3122; first compound 0.1265 µM): 0.259
relative viability (NCI-H3122; first compound 0.4 µM): 0.245
relative viability (NCI-H3122; first compound 1.265 µM): 0.195
relative viability (NCI-H3122; first compound 4 µM): 0.2
relative viability (NCI-H2228; first compound 0.04 µM): 0.242
relative viability (NCI-H2228; first compound 0.1265 µM): 0.297
relative viability (NCI-H2228; first compound 0.4 µM): 0.324
relative viability (NCI-H2228; first compound 1.265 µM): 0.224
relative viability (NCI-H2228; first compound 4 µM): 0.476
relative viability (NCI-H1792; first compound 0.04 µM): 0.874
relative viability (NCI-H1792; first compound 0.1265 µM): 0.686
relative viability (NCI-H1792; first compound 0.4 µM): 0.654
relative viability (NCI-H1792; first compound 1.265 µM): 0.635
relative viability (NCI-H1792; first compound 4 µM): 0.949
relative viability (NCI-H2170; first compound 0.04 µM): 0.761
relative viability (NCI-H2170; first compound 0.1265 µM): 0.833
relative viability (NCI-H2170; first compound 0.4 µM): 0.795
relative viability (NCI-H2170; first compound 1.265 µM): 0.46
relative viability (NCI-H2170; first compound 4 µM): 0.803
relative viability (HOP-62; first compound 0.04 µM): 0.835
relative viability (HOP-62; first compound 0.1265 µM): 0.924
relative viability (HOP-62; first compound 0.4 µM): 0.999
relative viability (HOP-62; first compound 1.265 µM): 0.981
relative viability (HOP-62; first compound 4 µM): 1.41
relative viability (NCI-H1993; first compound 0.04 µM): 0.709
relative viability (NCI-H1993; first compound 0.1265 µM): 0.596
relative viability (NCI-H1993; first compound 0.4 µM): 0.566
relative viability (NCI-H1993; first compound 1.265 µM): 0.682
relative viability (NCI-H1993; first compound 4 µM): 0.751
relative viability (COR-L23; first compound 0.04 µM): 0.774
relative viability (COR-L23; first compound 0.1265 µM): 0.79
relative viability (COR-L23; first compound 0.4 µM): 0.68
relative viability (COR-L23; first compound 1.265 µM): 0.524
relative viability (COR-L23; first compound 4 µM): 0.462
relative viability (SK-LU-1; first compound 0.04 µM): 1.18
relative viability (SK-LU-1; first compound 0.1265 µM): 0.988
relative viability (SK-LU-1; first compound 0.4 µM): 0.895
relative viability (SK-LU-1; first compound 1.265 µM): 0.966
relative viability (SK-LU-1; first compound 4 µM): 0.797
relative viability (NCI-H596; first compound 0.04 µM): 0.529
relative viability (NCI-H596; first compound 0.1265 µM): 0.477
relative viability (NCI-H596; first compound 0.4 µM): 0.587
relative viability (NCI-H596; first compound 1.265 µM): 0.362
relative viability (NCI-H596; first compound 4 µM): 0.493
relative viability (NCI-H1793; first compound 0.1265 µM): 0.613
relative viability (NCI-H1793; first compound 0.4 µM): 0.912
relative viability (NCI-H1793; first compound 1.265 µM): 0.45
relative viability (NCI-H1793; first compound 4 µM): 0.723
relative viability (NCI-H2009; first compound 0.04 µM): 1.13
relative viability (NCI-H2009; first compound 0.1265 µM): 1.05
relative viability (NCI-H2009; first compound 0.4 µM): 1.05
relative viability (NCI-H2009; first compound 1.265 µM): 1.17
relative viability (NCI-H2009; first compound 4 µM): 1.14
relative viability (NCI-H727; first compound 0.04 µM): 0.517
relative viability (NCI-H727; first compound 0.1265 µM): 0.512
relative viability (NCI-H727; first compound 0.4 µM): 0.519
relative viability (NCI-H727; first compound 1.265 µM): 0.329
relative viability (NCI-H727; first compound 4 µM): 0.27
relative viability (ABC-1; first compound 0.04 µM): 0.919
relative viability (ABC-1; first compound 0.1265 µM): 0.885
relative viability (ABC-1; first compound 0.4 µM): 0.855
relative viability (ABC-1; first compound 1.265 µM): 0.713
relative viability (ABC-1; first compound 4 µM): 0.993

Source: the supplement of paper PMC10307832
